{"source": "patent EP3381898A1", "about": "“SYMMETRICAL TRIS-ARYL-AMIDE DERIVATIVES AND THEIR USE AS ANTI-HEPARANASE” (priority 2017, dated 2018)", "key": {"[1]": {"biological_target": "T1, heparanase (Homo sapiens, UniProt Q9Y251)", "T1 sequence (Q9Y251 158-543 limits assumed)": "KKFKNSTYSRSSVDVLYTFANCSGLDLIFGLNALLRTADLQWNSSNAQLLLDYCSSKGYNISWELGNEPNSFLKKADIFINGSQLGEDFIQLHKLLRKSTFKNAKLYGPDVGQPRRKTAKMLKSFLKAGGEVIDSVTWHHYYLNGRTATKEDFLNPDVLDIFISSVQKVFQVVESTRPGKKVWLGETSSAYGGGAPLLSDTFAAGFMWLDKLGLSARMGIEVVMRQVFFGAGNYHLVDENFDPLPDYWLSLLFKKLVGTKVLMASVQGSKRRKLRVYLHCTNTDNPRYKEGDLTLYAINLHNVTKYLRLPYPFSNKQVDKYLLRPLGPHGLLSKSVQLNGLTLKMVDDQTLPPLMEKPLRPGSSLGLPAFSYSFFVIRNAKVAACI", "T1 sequence (Q9Y251 36-109 limits assumed)": "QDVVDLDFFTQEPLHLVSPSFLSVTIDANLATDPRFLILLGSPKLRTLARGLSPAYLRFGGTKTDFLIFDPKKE", "experiment": "AGA*IA assay: heparanase-catalyzed fondaparinux cleavage, colorimetric (WST-1)", "format": "biochemical", "method": "All compounds were tested in a simple, accurate and robust microplate assay based on the cleavage of the synthetic heparin fragment, the pentasaccharide Fondaparinux (AGA*IA). This assay was originally developed by Hammond and coworkers (Hammond E, Li CP, Ferro V. Development of a colorimetric assay for heparanase activity suitable for kinetic analysis and inhibitor screening. Anal. Biochem. 396(1), 112-116 (2010)), where Fondaparinux corresponds to the methyl glycoside of the antithrombin III (ATIII)-activating pentasaccharide sequence of heparin. Fondaparinux is cleaved by heparanase to generate a reducing disaccharide, which can be quantitatively measured via a colorimetric or a fluorescence assay, the last by the fluorescent sensor polymer-H [Schiemann S, Lühn S, Alban S. Development of both colorimetric and fluorescence heparinase activity assays using fondaparinux as substrate. Anal. Biochem. 427(1), 82-89 (2012)].\nThe assay measures the appearance of the disaccharide product of heparanase-catalyzed fondaparinux cleavage colorimetrically using the tetrazolium salt WST-1. Assay was essentially performed as described with minor modifications. Briefly, NUNC ELISA 96-well plates were pre-treated with a solution of 4% BSA (bovin serum albumin) in phosphate-buffered saline containing 0.05% Tween 20 (PBST), for 2 h at 37°C, then washed three times with PBST, dried by tapping on paper towel and stored at -20°C. Before use, once again, the plates were washed with PBST.\nAssay was carried out with 100 µl/well of assay solution containing 40 mM sodium acetate buffer (pH 5.0), 100 µM fondaparinux, 2.5 nM heparanase and serial dilutions of test compounds (tested in triplicate). Plates were sealed with adhesive tape and incubated, in the dark, for 3 h at 37°C, followed by development with 1.69 mM of the tetrazolium salt WST-1 solution in 0.1 M NaOH, for 1 h at 60°C. Then, the absorbance at 560 nm was measured through a microplate reader (Victor 3, Perkin Elmer).\nFinally, the measurements were corrected by subtracting both the reagent background and the inner absorbance value of test compound."}, "[2]": {"test_system": "U2OS (human osteosarcoma)", "experiment": "SRB Cell Cytotoxicity Assay (cell proliferation, 72h)", "format": "cell-based", "conditions": "72 h, read-out: Concentration (µM) of test compounds at which the cell growth is inhibited by 50 %. U2OS", "method": "(§1) SRB Cell Cytotoxicity Assay is an assay based upon the quantitative staining of cellular proteins by sulforhodamine B (SRB). This assay can be used for high-throughput drug screening ([…], Nature Protocol. 2006, 1, 112). Sulforhodamine B is an anionic aminoxanthene dye that forms an electrostatic complex with the basic amino acid residues of proteins under moderately acid conditions, which provides a sensitive linear response. […] Inhibition of cell proliferation was then measured by the classical colorimetric SRB Cell Cytotoxicity assay. Absorbance was measured by spectrophotometer at a wavelength of 510 nm and cell proliferation was determined as percent with respect to control cells (cells treated with the vehicle alone). EC50 values were then determined by GraphPad Prism."}, "[3]": {"test_system": "U87MG (human glioblastoma astrocytoma)", "experiment": "SRB Cell Cytotoxicity Assay (cell proliferation, 72h)", "format": "cell-based", "conditions": "U-87 MG, 72 h, read-out: Concentration (µM) of test compounds at which the cell growth is inhibited by 50 %. U87MG", "method": "as §1"}, "[4]": {"test_system": "HT1080 (human fibrosarcoma)", "experiment": "SRB Cell Cytotoxicity Assay (cell proliferation, 72h)", "format": "cell-based", "conditions": "HT-1080, 72 h, read-out: Concentration (µM) of test compounds at which the cell growth is inhibited by 50 %. HT1080", "method": "as §1"}, "[5]": {"conditions": "Table 1, range activity classes, AGA*IA test on Fondaparinux, read-out: AGAIA assay IC50"}, "[6]": {"conditions": "Table 2, classes as in Table 1, read-out: AGA*IA assay"}}, "note": "Like-named read-outs stand apart in the source and are kept apart here."}
{"smiles": "Cn1cc(NC(=O)c2cccc(NC(=O)Nc3cccc(C(=O)Nc4cc(C(=O)Nc5cccc(CC(=O)N[C@@H](Cc6ccccc6)C(=O)O)c5)n(C)c4)c3)c2)cc1C(=O)Nc1cccc(CC(=O)N[C@@H](Cc2ccccc2)C(=O)O)c1", "note": "[Compound 12e, 2,2'-{carbonylbis[imino-3,1-phenylenecarbonylimino(1-methyl-1H-pyrrole-4,2-diyl)carbonylimino-3,1-phenylene(1-oxoethane-2,1-diyl)imino]}bis(3-phenylpropanoic acid)]", "values": [{"measurement": "IC50", "setting": "[1]; AGA*IA screening, read-out: anti-heparanase activity", "result": "< 0.5", "unit": "µM"}, {"measurement": "IC50", "setting": "[1]; [5]", "result": "0.05 to 0.49", "unit": "µM"}, {"measurement": "IC50", "setting": "[1]; [6]", "result": "0.05 to 0.49", "unit": "µM"}, {"measurement": "EC50", "setting": "[2]", "result": "> 2.5", "unit": "µM"}, {"measurement": "EC50", "setting": "[3]", "result": "> 2.5", "unit": "µM"}, {"measurement": "EC50", "setting": "[4]", "result": "> 2.5", "unit": "µM"}]}
{"smiles": "Cn1cc(NC(=O)Nc2cc(C(=O)Nc3cc(C(=O)Nc4cccc(CC(=O)O)c4)n(C)c3)n(C)c2)cc1C(=O)Nc1cc(C(=O)Nc2cccc(CC(=O)O)c2)n(C)c1", "note": "[Compound 17h, 2,2'-{carbonylbis[imino(1-methyl-1H-pyrrole-4,2-diyl)carbonylimino(1-methyl-1H-pyrrole-4,2-diyl)carbonylimino-3,1-phenylene]}diacetic acid]", "values": [{"measurement": "IC50", "setting": "[1]; [5]", "result": "0.5 to 0.99", "unit": "µM"}, {"measurement": "IC50", "setting": "[1]; [6]", "result": "0.5 to 0.99", "unit": "µM"}, {"measurement": "EC50", "setting": "[2]", "result": "> 2.5", "unit": "µM"}, {"measurement": "EC50", "setting": "[3]", "result": "> 2.5", "unit": "µM"}, {"measurement": "EC50", "setting": "[4]", "result": "> 2.5", "unit": "µM"}]}
{"smiles": "Cn1cc(NC(=O)c2ccc(Oc3ccc(C(=O)Nc4cc(C(=O)Nc5cccc(CC(=O)N[C@@H](CCC(=O)O)C(=O)O)c5)n(C)c4)cc3)cc2)cc1C(=O)Nc1cccc(CC(=O)N[C@@H](CCC(=O)O)C(=O)O)c1", "note": "[Compound 36f, (2S,2'S)-2,2'-((2,2'-(((4,4'-((4,4'-Oxybis(benzoyl))bis(azanediyl))bis(1-methyl-1H-pyrrole-2,2'-carbonyl))bis(azanediyl))bis(3,1-phenylene))bis(acetyl))bis(azanediyl))dipentanedioic acid]", "values": [{"measurement": "IC50", "setting": "[1]; [5]", "result": "1 to 20", "unit": "µM"}]}
{"smiles": "CC(C)C[C@H](NC(=O)Cc1cccc(NC(=O)c2cc(NC(=O)c3cc(NC(=O)Nc4cc(C(=O)Nc5cc(C(=O)Nc6cccc(CC(=O)N[C@@H](CC(C)C)B(O)O)c6)n(C)c5)n(C)c4)cn3C)cn2C)c1)B(O)O", "note": "[Compound 41, ((1R,1'R)-((2,2'-(((4,4'-((4,4'-(carbonylbis(azanediyl))bis(1-methyl-1H-pyrrole-4,2-diyl-2-carbonyl))bis(azanediyl))bis(1-methyl-1H-pyrrole-4,2-diyl-2-carbonyl))bis(azanediyl))bis(3,1-phenylene))bis(acetyl))bis(azanediyl))bis(3-methylbutane-1,1-diyl))diboronic acid]", "values": [{"measurement": "IC50", "setting": "[1]; [5]", "result": "1 to 20", "unit": "µM"}]}
{"smiles": "CC(C)C[C@H](NC(=O)Cc1cccc(NC(=O)c2cc(NC(=O)c3ccc(Oc4ccc(C(=O)Nc5cc(C(=O)Nc6cccc(CC(=O)N[C@@H](CC(C)C)B(O)O)c6)n(C)c5)cc4)cc3)cn2C)c1)B(O)O", "note": "[Compound 42, ((1R,1'R)-((2,2'-(((4,4'-((4,4'-Oxybis(benzoyl))bis(azanediyl))bis(1-methyl-1H-pyrrole-2,2'-carbonyl))bis(azanediyl))bis(3,1-phenylene))bis(acetyl))bis(azanediyl))bis(3-methylbutane-1,1-diyl))diboronic acid]", "values": [{"measurement": "IC50", "setting": "[1]; [5]", "result": "1 to 20", "unit": "µM"}]}
{"smiles": "CC(C)C[C@H](NC(=O)Cc1cccc(NC(=O)c2cc(NC(=O)c3cccc(NC(=O)Nc4cccc(C(=O)Nc5cc(C(=O)Nc6cccc(CC(=O)N[C@@H](CC(C)C)B(O)O)c6)n(C)c5)c4)c3)cn2C)c1)B(O)O", "note": "[Compound 43, ((1R,1'R)-((2,2'-(((4,4'-((3,3'-(Carbonylbis(azanediyl))bis(benzoyl))bis(azanediyl))bis(1-methyl-1H-pyrrole-4,2-diyl-2-carbonyl))bis(azanediyl))bis(3,1-phenylene))bis(acetyl))bis(azanediyl))bis(3-methylbutane-1,1-diyl))diboronic acid]", "values": [{"measurement": "IC50", "setting": "[1]; [5]", "result": "1 to 20", "unit": "µM"}]}
{"smiles": "CC(C)C[C@H](NC(=O)CNC(=O)Cc1cccc(NC(=O)c2cc(NC(=O)c3cc(NC(=O)Nc4cc(C(=O)Nc5cc(C(=O)Nc6cccc(CC(=O)NCC(=O)N[C@@H](CC(C)C)B(O)O)c6)n(C)c5)n(C)c4)cn3C)cn2C)c1)B(O)O", "note": "[Compound 46, ((1R,1'R)-((2,2'-((2,2'-(((4,4'-((4,4'-(carbonylbis(azanediyl))bis(1-methyl-1H-pyrrole-4,2-diyl-2-carbonyl))bis(azanediyl))bis(1-methyl-1H-pyrrole-4,2-diyl-2-carbonyl))bis(azanediyl))bis(3,1-phenylene))bis(acetyl))bis(azanediyl))bis(acetyl))bis(azanediyl))bis(3-methylbutane-1,1-diyl))diboronic acid]", "values": [{"measurement": "IC50", "setting": "[1]; [5]", "result": "1 to 20", "unit": "µM"}]}
{"smiles": "CC(C)C[C@H](NC(=O)CNC(=O)Cc1cccc(NC(=O)c2cc(NC(=O)c3cccc(NC(=O)Nc4cccc(C(=O)Nc5cc(C(=O)Nc6cccc(CC(=O)NCC(=O)N[C@@H](CC(C)C)B(O)O)c6)n(C)c5)c4)c3)cn2C)c1)B(O)O", "note": "[Compound 47, ((1R,1'R)-((2,2'-((2,2'-(((4,4'-((3,3'-(Carbonylbis(azanediyl))bis(benzoyl))bis(azanediyl))bis(1-methyl-1H-pyrrole-4,2-diyl-2-carbonyl))bis(azanediyl))bis(3,1-phenylene))bis(acetyl))bis(azanediyl))bis(acetyl))bis(azanediyl))bis(3-methylbutane-1,1-diyl))diboronic acid]", "values": [{"measurement": "IC50", "setting": "[1]; [5]", "result": "1 to 20", "unit": "µM"}]}
